Assay results: patent publication US8680233B2, “Heteropeptides useful for reducing nonspecific adsorption” (Valorisation-Recherche, Limited Partnership, priority 2009, dated 2014)
Numbered stars: 1 amine (or outer) side, 2 acyl side, 3 side chain; on linkers, the order of the positions; unused ones are H or OH. Square brackets hold non-standard residues; d marks the D form. Peptide text beside a SMILES is read from it. Haic = O=C1[C@@H](N[*:1])CCc2cccc3c2N1[C@H](C(=O)[*:2])C3; dTrp(2-Me) = Cc1[nH]c2ccccc2c1C[C@@H](N)C(=O)O

Key:
His-tagged hDHFR = target: T1, His-tagged hDHFR (Homo sapiens, UniProt P00374); experiment: SPR blank assay on a hDHFR-His-Tag functionalized sensor; assay type: binding; details: same peptide concentrations
T1 construct: made in house
T1 sequence (P00374 1-187): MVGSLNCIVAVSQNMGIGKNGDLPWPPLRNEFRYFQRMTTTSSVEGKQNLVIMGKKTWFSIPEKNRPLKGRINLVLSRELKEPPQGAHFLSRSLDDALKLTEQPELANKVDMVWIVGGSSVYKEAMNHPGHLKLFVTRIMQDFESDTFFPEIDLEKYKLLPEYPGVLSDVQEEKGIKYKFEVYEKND
Method: (§1) The SPR sensors for screening small peptidic ligand binding to a recombinant soluble His-tagged CD36 functionalized surfaces were prepared as described above. Five ligands were investigated: EP80317, CP-2B(i), CP-3(iv), CP-2A(v) and DBG-178(27) with concentrations ranging from 30 μM to 100 nM except for EP80317. The latter was used for optimizing the system with solutions ranging from 1 mM to 100 nM. EP80317 (HAIC-2MeDTrp-DLys-Trp-D-Phe-Lys-NH2) is a positive control of known activity, CP-2B(i) (His-DTrp-AzaLeu-Trp-DPhe-Ala-NH2) is a negative control, and CP-3(iv) (Ala-DTrp-Ala-AzaPhe-DPhe-Lys-NH2), CP-2A(v) (His-DTrp-AzaGly-Trp-DPhe-Lys-NH2) and DBG-178(27) (His-DTrp-Ala-azaTyr-DPhe-Lys-NH2) are novel CD36 ligands (see PCT publication No. WO 08/154,738). Another negative control was accomplished by exposing the His-tagged hDHFR functionalized surface to the same concentration of CD36 peptidic ligand. Two different approaches were used to remove the His-tagged CD36-Cu complex from the SPR sensors: concentrated histidine solution or saturated EDTA solution.
This is the case of the CD36-ligand system investigated herein, where the ligands are small peptides of about 800 to 1000 g/mol. Indeed, according to the aforementioned principle, the binding of the small peptides to the CD36 receptor should be close to the limit of detection, thus providing unreliable affinity measurements. […]

[1] = target: recombinant soluble His-tagged CD36 (Homo sapiens, UniProt P16671); experiment: SPR screening of peptide ligands on a CD36 functionalized sensor; assay type: binding; details: increasing ligand concentrations
Method: as §1
This is the case of the CD36-ligand system investigated herein, where the ligands are small peptides of about 800 to 1000 g/mol. Indeed, according to the aforementioned principle, the binding of the small peptides to the CD36 receptor should be close to the limit of detection, thus providing unreliable affinity measurements. […] This could be a consequence of a large conformational change of the CD36 receptor upon binding of specific ligands, thus providing the amplification sufficient for SPR signal detection.
The SPR setup was used for investigating the structure-activity relationships of various CD36 peptidic ligands. […] The measured KD's were compared to the EC50 values obtained in the activated src-kinase assay following CD36 receptor activation by the tested peptides. […] For the src-kinase cellular assay, the response sensitivity (EC50) for the tested peptides (in decreasing order) was as follows: EP80317>CP-2A(v)>CP-3(iv)>DBG-178(27)>CP-2B(i). With SPR, the binding affinity to CD36, in decreasing order, was: DBG-178(27)>CP-2A(v)>EP80317>CP-3(iv)>CP-2B(i). […] For CD36-peptidic ligands, a correlation appears between the affinity binding of the small peptides for CD36 as determined by SPR and their efficiency to produce a cellular response in the src kinase assay. Thus, SPR appears as a selective and sensitive method to screen for CD36 ligands.

Sequence of recombinant soluble His-tagged CD36 (P16671 30-439 limits assumed): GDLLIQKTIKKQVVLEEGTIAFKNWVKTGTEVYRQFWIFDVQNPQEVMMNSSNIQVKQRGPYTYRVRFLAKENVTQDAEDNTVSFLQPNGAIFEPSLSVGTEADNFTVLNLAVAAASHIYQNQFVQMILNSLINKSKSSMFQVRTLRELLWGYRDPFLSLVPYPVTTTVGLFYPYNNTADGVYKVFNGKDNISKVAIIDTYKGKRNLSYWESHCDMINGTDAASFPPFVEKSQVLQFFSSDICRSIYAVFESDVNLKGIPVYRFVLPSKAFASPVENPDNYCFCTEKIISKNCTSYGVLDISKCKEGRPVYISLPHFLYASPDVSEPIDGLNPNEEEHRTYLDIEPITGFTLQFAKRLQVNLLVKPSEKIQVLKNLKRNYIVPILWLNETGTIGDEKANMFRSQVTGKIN

With Cc1[nH]c2ccccc2c1C[C@@H](NC(=O)[C@@H]1Cc2cccc3c2N1C(=O)[C@@H](N)CC3)C(=O)N[C@H](CCCCN)C(=O)N[C@@H](Cc1c[nH]c2ccccc12)C(=O)N[C@H](Cc1ccccc1)C(=O)N[C@@H](CCCCN)C(N)=O [EP80317, HAIC-2MeDTrp-DLys-Trp-D-Phe-Lys-NH2, reference compound] (Haic-[dTrp(2-Me)][dK]W[dF]K-NH2; N-terminus assumed) the “Change of SPR signal on hDHFR-His-Tag functionalized sensor” value (His-tagged hDHFR) was “no significant change of signal” and the “Change of SPR signal on CD36-His-tag-functionalized surface” value [1] was “large shift in the signal”.
